According to patent US9000023B2, “Disubstituted phthalazine hedgehog pathway antagonists” (Eli Lilly and Company, priority 2009, dated 2015):
Counter-ions that a name gives are not always drawn.

Assays:
[1] = system: Gli1 in Daoy cells; test: Functional assay for measuring the inhibition of Gli1 in Daoy cells (bDNA assay); type: cell-based; conditions: Homo sapiens; Daoy cells stimulated with Shh conditioned media, 24 hours with compound, Gli1 transcript by bDNA luminescence
Procedure: All ligands, solvents, and reagents employed in the following assay are readily available from commercial sources or can be readily prepared by one skilled in the art. Biological activity is determined using a functional assay in Daoy neuronal cancer cells and measures levels of Gli1 ribonucleic acid via a bDNA (branched deoxyribonucleic acid) assay system (Panomics, Inc., Fremont, Calif.). Gli was originally discovered in a Glioblastoma cell line and encodes a zinc finger protein that is activated by Shh signaling. The maximum response is obtained by inducing Gli1 transcription in the Daoy cells with conditioned medium (human embryonic kidney, HEK-293 cells stably expressing recombinant Shh) for 24 hours and then measuring the amount of stimulated Gli1 transcript. […] The bDNA assay system utilizes the technology of branched-chain DNA to allow amplification of a target ribonucleic acid (transcript). […] The addition of a chemilumigenic substrate during the amplification step allows for detection using luminescence. […] The cells are removed from the T225-flasks using trypsin ethylenediaminetetraacetic acid (EDTA), centrifuged, resuspended in media, and then counted. […] The signal is quantified by reading the plates on a Perkin Elmer Envision reader detecting luminescence. […]

[2] = target: CYP3A4 (Homo sapiens, UniProt P08684); test: CYP3A4 Inhibition Assay (human liver microsomes, midazolam substrate); conditions: pH 7.4, probe midazolam (5 μM; formation of 1-OH-midazolam)
Chain of CYP3A4 (P08684 whole entry): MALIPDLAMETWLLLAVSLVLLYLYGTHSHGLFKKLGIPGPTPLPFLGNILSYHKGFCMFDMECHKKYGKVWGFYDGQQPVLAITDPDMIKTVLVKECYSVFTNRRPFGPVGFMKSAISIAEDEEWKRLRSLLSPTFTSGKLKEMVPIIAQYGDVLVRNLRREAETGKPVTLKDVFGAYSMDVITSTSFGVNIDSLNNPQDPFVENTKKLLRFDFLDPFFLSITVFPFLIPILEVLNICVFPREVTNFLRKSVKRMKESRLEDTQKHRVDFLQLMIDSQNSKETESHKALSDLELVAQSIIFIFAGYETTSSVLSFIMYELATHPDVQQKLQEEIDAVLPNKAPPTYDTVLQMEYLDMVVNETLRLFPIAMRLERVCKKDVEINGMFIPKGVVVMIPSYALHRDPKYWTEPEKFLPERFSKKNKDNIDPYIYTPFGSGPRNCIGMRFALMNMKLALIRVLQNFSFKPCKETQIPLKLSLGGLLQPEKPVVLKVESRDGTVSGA

IC50 [1]: ~2.4 nM
inhibition at 3 min, 10 μM [2]: 13.5%
SMILES: CN(C(=O)c1ccc(F)cc1C(F)(F)F)C1CCN(c2nnc(-c3ccnn3C)c3ccccc23)CC1 [Example 1a, 4-Fluoro-N-methyl-N-(1-(4-(1-methyl-1H-pyrazol-5-yl)phthalazin-1-yl)piperidin-4-yl)-2-(trifluoromethyl)benzamide hydrochloride]
